Data published in patent US12077503B2, “Substituted cyclic amides and their use as herbicides” (FMC CORPORATION, priority 2015, dated 2024).

How the values were obtained:
Format in all cases: in vivo
[1] = system: giant foxtail (Setaria faberi); assay: Test G Post-Emergence Protocol; conditions: Setaria faberi, post-emergence, 312 h
In short: (§1)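 Seedlings grown 8 days in soil in a glasshouse (24/16 °C day/night, 14 h light, 65% humidity) were sprayed post-emergence with compound in acetone/water 50:50 plus 0.5% Tween 20 at 15.625, 62.5 or 250 g/ha. Damage was scored after 13 days on a 0–100 scale (100 = total damage).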

[2] = system: ivy-leaved morning glory (Ipomoea hederacea); assay: Test G Post-Emergence Protocol; conditions: Ipomoea, post-emergence, 312 h
In short: as §1

[3] = system: redroot pigweed (Amaranthus retroflexus); assay: Test G Post-Emergence Protocol; conditions: Amaranthus retroflexus, post-emergence, 312 h
In short: as §1

[4] = system: velvetleaf (Abutilon theophrasti); assay: Test G Post-Emergence Protocol; conditions: Abutilon theophrasti, post-emergence, 312 h
In short: as §1

[5] = system: barnyardgrass (Echinochloa crus-galli); assay: Test G Post-Emergence Protocol; conditions: Echinochloa crus-galli, post-emergence, 312 h
In short: as §1

corn (Zea mays) [6] = assay: Test G Post-Emergence Protocol; conditions: Zea mays, post-emergence, 312 h
In short: as §1

[7] = system: giant foxtail (Setaria faberi); assay: Test G Pre-Emergence Protocol; conditions: Setaria faberi, pre-emergence, 312 h, evaluated after 13 days
In short: (§2)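 Under a 24/16° C day/night regime with 14 h light and 65% humidity, sown pots were sprayed after one day with compound (15.625, 62.5 or 250 g/ha; 50:50 acetone/water, 0.5% Tween 20). Damage was assessed visually 13 days later, 0 to 100.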

[8] = system: ivy-leaved morning glory (Ipomoea hederacea); assay: Test G Pre-Emergence Protocol; conditions: Ipomoea, pre-emergence, 312 h, evaluated after 13 days
In short: as §2

[9] = system: redroot pigweed (Amaranthus retroflexus); assay: Test G Pre-Emergence Protocol; conditions: Amaranthus retroflexus, pre-emergence, 312 h, evaluated after 13 days
In short: as §2

[10] = system: velvetleaf (Abutilon theophrasti); assay: Test G Pre-Emergence Protocol; conditions: Abutilon theophrasti, pre-emergence, 312 h, evaluated after 13 days
In short: as §2

[11] = system: barnyardgrass (Echinochloa crus-galli); assay: Test G Pre-Emergence Protocol; conditions: Echinochloa crus-galli, pre-emergence, 312 h, evaluated after 13 days
In short: as §2

corn (Zea mays) [12] = assay: Test G Pre-Emergence Protocol; conditions: Zea mays, pre-emergence, 312 h, evaluated after 13 days
In short: as §2

CN1C[C@@H](c2ccc(C(F)(F)F)cc2)[C@H](C(=O)Nc2[nH]ncc2C#N)C1=O (racemic) [Compound 1551]
0%: pest or weed control at 15.625 g/ha ([1]; 15.625 g ai/ha, evaluated after 13 days (100=total damage to plant; 0=no damage to plant), read-out: Foxtail, Giant damage rating) | pest or weed control at 62.5 g/ha ([1]; 62.5 g ai/ha, evaluated after 13 days, read-out: Foxtail, Giant damage rating (100=total damage to plant; 0=no damage to plant)) | pest or weed control at 250 g/ha ([1]; 250 g ai/ha, evaluated after 13 days, read-out: damage to plant, Foxtail, Giant (100=total damage to plant; 0=no damage to plant)) | pest or weed control at 15.625 g/ha ([2]; 15.625 g ai/ha, evaluated after 13 days (100=total damage to plant; 0=no damage to plant), read-out: Morningglory, Ivy-leaved damage rating) | pest or weed control at 62.5 g/ha ([2]; 62.5 g ai/ha, evaluated after 13 days, read-out: Morningglory, Ivy-leaved damage rating (100=total damage to plant; 0=no damage to plant)) | pest or weed control at 250 g/ha ([2]; 250 g ai/ha, evaluated after 13 days, read-out: damage to plant, Morningglory, Ivy-leaved (100=total damage to plant; 0=no damage to plant)) | pest or weed control at 15.625 g/ha ([3]; 15.625 g ai/ha, evaluated after 13 days (100=total damage to plant; 0=no damage to plant), read-out: Pigweed, Redroot damage rating) | pest or weed control at 62.5 g/ha ([3]; 62.5 g ai/ha, evaluated after 13 days, read-out: Pigweed, Redroot damage rating (100=total damage to plant; 0=no damage to plant)) | pest or weed control at 250 g/ha ([3]; 250 g ai/ha, evaluated after 13 days, read-out: damage to plant, Pigweed, Redroot (100=total damage to plant; 0=no damage to plant)) | pest or weed control at 15.625 g/ha ([4]; 15.625 g ai/ha, evaluated after 13 days (100=total damage to plant; 0=no damage to plant), read-out: Velvetleaf damage rating) | pest or weed control at 62.5 g/ha ([4]; 62.5 g ai/ha, evaluated after 13 days, read-out: Velvetleaf damage rating (100=total damage to plant; 0=no damage to plant)) | pest or weed control at 250 g/ha ([4]; 250 g ai/ha, evaluated after 13 days, read-out: damage to plant, Velvetleaf (100=total damage to plant; 0=no damage to plant)) | pest or weed control at 15.625 g/ha ([5]; 15.625 g ai/ha, evaluated after 13 days (100=total damage to plant; 0=no damage to plant), read-out: Barnyardgrass damage rating) | pest or weed control at 62.5 g/ha ([5]; 62.5 g ai/ha, evaluated after 13 days, read-out: Barnyardgrass damage rating (100=total damage to plant; 0=no damage to plant)) | pest or weed control at 250 g/ha ([5]; 250 g ai/ha, evaluated after 13 days, read-out: damage to plant, Barnyardgrass (100=total damage to plant; 0=no damage to plant)) | plant injury at 15.625 g/ha (corn (Zea mays) [6]; 15.625 g ai/ha, evaluated after 13 days (100=total damage to plant; 0=no damage to plant), read-out: Corn damage rating) | plant injury at 62.5 g/ha (corn (Zea mays) [6]; 62.5 g ai/ha, evaluated after 13 days, read-out: Corn damage rating (100=total damage to plant; 0=no damage to plant)) | pest or weed control at 15.625 g/ha ([7]; 15.625 g ai/ha, read-out: Foxtail, Giant damage rating (100=total damage to plant; 0=no damage to plant)) | pest or weed control at 62.5 g/ha ([7]; 62.5 g ai/ha, 100=total damage to plant, 0=no damage to plant, read-out: plant damage rating, Foxtail, Giant) | pest or weed control at 250 g/ha ([7]; 250 g ai/ha, read-out: Foxtail, Giant damage rating (100=total damage to plant; 0=no damage to plant)) | pest or weed control at 15.625 g/ha ([8]; 15.625 g ai/ha, read-out: Morning-glory, Ivy-leaved damage rating (100=total damage to plant; 0=no damage to plant)) | pest or weed control at 62.5 g/ha ([8]; 62.5 g ai/ha, 100=total damage to plant, 0=no damage to plant, read-out: plant damage rating, Morningglory, Ivy-leaved) | pest or weed control at 250 g/ha ([8]; 250 g ai/ha, read-out: Morningglory, Ivy-leaved damage rating (100=total damage to plant; 0=no damage to plant)) | pest or weed control at 15.625 g/ha ([9]; 15.625 g ai/ha, read-out: Pigweed, Redroot damage rating (100=total damage to plant; 0=no damage to plant)) | pest or weed control at 62.5 g/ha ([9]; 62.5 g ai/ha, 100=total damage to plant, 0=no damage to plant, read-out: plant damage rating, Pigweed, Redroot) | pest or weed control at 250 g/ha ([9]; 250 g ai/ha, read-out: Pigweed, Redroot damage rating (100=total damage to plant; 0=no damage to plant)) | pest or weed control at 15.625 g/ha ([10]; 15.625 g ai/ha, read-out: Velvetleaf damage rating (100=total damage to plant; 0=no damage to plant)) | pest or weed control at 62.5 g/ha ([10]; 62.5 g ai/ha, 100=total damage to plant, 0=no damage to plant, read-out: plant damage rating, Velvetleaf) | pest or weed control at 250 g/ha ([10]; 250 g ai/ha, read-out: Velvetleaf damage rating (100=total damage to plant; 0=no damage to plant)) | pest or weed control at 15.625 g/ha ([11]; 15.625 g ai/ha, read-out: Barnyard grass damage rating (100=total damage to plant; 0=no damage to plant)) | pest or weed control at 62.5 g/ha ([11]; 62.5 g ai/ha, 100=total damage to plant, 0=no damage to plant, read-out: plant damage rating, Barnyardgrass) | pest or weed control at 250 g/ha ([11]; 250 g ai/ha, read-out: Barnyardgrass damage rating (100=total damage to plant; 0=no damage to plant)) | plant injury at 15.625 g/ha (corn (Zea mays) [12]; 15.625 g ai/ha, read-out: Corn damage rating (100=total damage to plant; 0=no damage to plant)) | plant injury at 62.5 g/ha (corn (Zea mays) [12]; 62.5 g ai/ha, 100=total damage to plant, 0=no damage to plant, read-out: plant damage rating, Corn) | plant injury at 250 g/ha (corn (Zea mays) [12]; 250 g ai/ha, read-out: Corn damage rating (100=total damage to plant; 0=no damage to plant))
10%: plant injury at 250 g/ha (corn (Zea mays) [6]; 250 g ai/ha, evaluated after 13 days, read-out: damage to plant, Corn (100=total damage to plant; 0=no damage to plant))
